Experimental data as given in US20240156836A1, “METHODS OF TREATING TE[…]” (priority 2018, published 2024).

Legend:
[1] = Procedure: Testosterone undecanoate is metabolized into testosterone. Its degradation in whole blood into testosterone has been studied in conditions typically used in clinical trials.
Prior to discharge from the clinical facility, the subjects will be instructed to take 396 mg TU by mouth immediately prior to their dinner meal on Day 1, then twice daily on Days 2-6 immediately prior to their breakfast and dinner meals, and on Day 7 in the morning, immediately prior to their breakfast meal.
Subjects will return to the Clinic on Day 7 in the late afternoon (before dinner) with their study medication. Upon arrival at the clinic, their study drug will be counted to determine compliance during Day 1 through Day 7 post-AM dose. They will then be administered the study drug 396 mg TU by mouth immediately prior to a dinner meal (containing 30 g fat) which will be provided. Subjects will be instructed to consume the dinner in approximately 20 minutes. Subjects will remain in the unit overnight.
On the 8th day, 5 hrs after their AM meal, blood is collected in plain, EDTA and NaF-EDTA tubes. The plain tubes sit at room temperature (RT). The EDTA and NaF-EDTA tubes are placed on ice.
Samples will be collected into multiple Plain, EDTA and NaF-EDTA tubes. The Plain tube will be incubated at RT to allow blood clotting, as recommended by Clinical and Laboratory Standards Institute (CLSI 2010). […]

[2] = Dose titration concordance analysis (C6 vs Cavg) in hypogonadal men treated with oral TU; type: in vivo
Description: One of the goals of this study was to determine whether the T concentration in blood samples collected into Plain tubes (yielding serum) can be used for making dose titration decisions. In previous studies, dose titration decisions were based on T concentrations in NaF-EDTA plasma.
The goal of dose-titration in men treated with oral TU is to bring the testosterone Cavg into the eugonadal range. Because titration decisions based on testosterone Cavg are not practical in real world clinical setting, single sample T concentrations can be used as surrogates of Cavg. Concordance analysis estimates how well dose titration based on two different measures (e.g., Cavg v. C6) work in guiding dose titration. […] However, to determine total concordance, effective off-diagonal titration also must be determined. Effective off-diagonal titration can be estimated for the following reasons. […] Second, the titration boundaries (425 to 970 ng/dL) fall within the eugonadal boundaries (300 to 1100 ng/dL), and the eugonadal range is wide (3.5 fold) compared to the largest dose increment (33%) or decrement (25%). This means that the dose increments/decrements employed can allow movement within the eugonadal range (e.g. increasing the dose of someone with a Cavg of 400 ng/dL will raise the Cavg to a maximum of 532 ng/dL [400×1.33]). Similarly, when titration decisions based on C6 are different from those based on Cavg, the outcome will often be a Cavg in the eugonadal range. For example, when a patient's C6 is less than 425 ng/dL (indicating a dose increase is required), but whose Cavg is 600 ng/dL (indicating no titration), the impact of titrating based on C6 is that the Cavg will increase but remain in the eugonadal range. The largest dose increase will result in a 33% increase in exposure which, in this case, will raise the Cavg to 798 ng/dL. Therefore, despite titration based on C6, this patient's Cavg is not likely to rise above the upper boundary of the eugonadal range. Thus, the titration decision based on C6 is effectively concordant with that based on Cavg, since both titration decisions will result in a patient with a Cavg in the eugonadal range. Selected cells in Table 3 indicate a patient's Cavg that would result in effective off-diagonal titration. Therefore, when comparing the effectiveness of dose-titration decisions based on C6 and Cavg, both concordance (on-diagonal agreement between C6 and Cavg) and effective off-diagonal agreement must be considered) [i.e., total concordance (percent of patients treated with oral TU who fall into given concordance boxes) is defined as the sum of on-diagonal and effective off-diagonal concordance (see area in Table 3 defined by heavy line). In the example presented, the C6 value is a serum value derived from a measured NaF-EDTA plasma value and a conversion factor that enables the conversion of NaF-EDTA plasma data to be converted to an equivalent serum data.
These reflect an on-diagonal concordance of 75% and 63% and an effective off-diagonal titration decision of 24% and 36% for Visit 2 and Visit 4b, respectively. Therefore, dose titration based on C6 can effectively adjust a patient's oral TU dose such that their Cavg is in the eugonadal range.

CCCCCCCCCCC(=O)O[C@H]1CC[C@H]2[C@@H]3CCC4=CC(=O)CC[C@]4(C)[C@H]3CC[C@]12C [TU, testosterone undecanoate]
degradation of TU in whole blood into testosterone [1]: degrades extensively to testosterone
percent of patients ([2]; Visit 2, C6 425-970 ng/dL, Cavg 350-800 ng/dL): 15.2%
percent of patients ([2]; Visit 2, C6 425-970 ng/dL, Cavg <350 ng/dL): 5.4%
percent of patients ([2]; Visit 2, C6 425-970 ng/dL, Cavg >800 ng/dL): 2%
percent of patients ([2]; Visit 2, C6 425-970 ng/dL, Total): 22.6%
percent of patients ([2]; Visit 2, C6 <425 ng/dL, Cavg 350-800 ng/dL): 13.9%
percent of patients ([2]; Visit 2, C6 <425 ng/dL, Cavg <350 ng/dL): 59.4%
percent of patients ([2]; Visit 2, C6 <425 ng/dL, Cavg >800 ng/dL): 0%
percent of patients ([2]; Visit 2, C6 <425 ng/dL, Total): 73.3%
percent of patients ([2]; Visit 2, C6 >970 ng/dL, Cavg 350-800 ng/dL): 4.2%
percent of patients ([2]; Visit 2, C6 >970 ng/dL, Cavg <350 ng/dL): 0%
percent of patients ([2]; Visit 2, C6 >970 ng/dL, Cavg >800 ng/dL): 0.6%
percent of patients ([2]; Visit 2, C6 >970 ng/dL, Total): 4.8%
percent of patients ([2]; Visit 2, Total, Cavg 350-800 ng/dL): 33.3%
percent of patients ([2]; Visit 2, Total, Cavg <350 ng/dL): 64.8%
percent of patients ([2]; Visit 2, Total, Cavg >800 ng/dL): 2.6%
percent of patients ([2]; Visit 4b, C6 425-970 ng/dL, Cavg 350-800 ng/dL): 25%
percent of patients ([2]; Visit 4b, C6 425-970 ng/dL, Cavg <350 ng/dL): 10%
percent of patients ([2]; Visit 4b, C6 425-970 ng/dL, Cavg >800 ng/dL): 0.6%
percent of patients ([2]; Visit 4b, C6 425-970 ng/dL, Total): 35.6%
percent of patients ([2]; Visit 4b, C6 <425 ng/dL, Cavg 350-800 ng/dL): 21.8%
percent of patients ([2]; Visit 4b, C6 <425 ng/dL, Cavg <350 ng/dL): 37.5%
percent of patients ([2]; Visit 4b, C6 <425 ng/dL, Cavg >800 ng/dL): 0%
percent of patients ([2]; Visit 4b, C6 <425 ng/dL, Total): 59.3%
percent of patients ([2]; Visit 4b, C6 >970 ng/dL, Cavg 350-800 ng/dL): 4.3%
percent of patients ([2]; Visit 4b, C6 >970 ng/dL, Cavg <350 ng/dL): 0%
percent of patients ([2]; Visit 4b, C6 >970 ng/dL, Cavg >800 ng/dL): 0.6%
percent of patients ([2]; Visit 4b, C6 >970 ng/dL, Total): 4.9%
percent of patients ([2]; Visit 4b, Total, Cavg 350-800 ng/dL): 51.1%
percent of patients ([2]; Visit 4b, Total, Cavg <350 ng/dL): 47.5%
percent of patients ([2]; Visit 4b, Total, Cavg >800 ng/dL): 1.2%
testosterone exposure versus dose ([2]; men treated with oral TU): dose proportional
